In article PMC7730441, “Acetylcholinesterase and butyrylcholinesterase inhibitory activities of khellactone coumarin derivatives isolated from Peucedanum japonicum Thurnberg” (Scientific Reports, 2020):
In brackets after ≈: the same amount, converted by molar mass. Like-named read-outs stand apart in the source and are kept apart here.

What was measured:
AChE = conditions: cited from earlier work
[1] = target: T1, AChE (Type VI-S; from Electrophorus electricus) (Electrophorus electricus, UniProt O42275); test: biochemical; conditions: for remaining activity at 10 µM: read-out: Residual activity at 10 µM (%) AChE, inhibitor 10 µM; for SI = IC50 of AChE/ IC50 of BChE: selectivity index
T1 construct: AChE (Type VI-S; from Electrophorus electricus); purchased Sigma-Aldrich Type VI-S (catalogue number not given)
Procedure: (§1) AChE assays were performed as described by Ellman et al.[41] with slight modifications. […] DTNB was used for color development, caused by reaction between it and thiocholine (a product of AChE). For inhibitory assays, compounds were preincubated with AChE for 15 min prior to ATCI and DTNB addition. BChE activity was assayed using the same method, but BTCI was used instead of ATCI.
(§2) Inhibitions of the activities of AChE, BChE, MAO-A, and MAO-B by the 15 compounds were investigated at an inhibitor concentration of 10 µM. IC50 values were also determined. […] The inhibition types and Ki values were determined using Lineweaver–Burk Plots and secondary plots.

BChE (from equine serum) = target: T2, BChE (from equine serum) (Equus caballus, UniProt P81908); test: biochemical; conditions: 15 min preincubation
T2 construct: BChE (from equine serum); purchased Sigma-Aldrich; host or cells: equine serum
Procedure: as §1, §2

recombinant human MAO-B = target: T3, recombinant human MAO-B (Homo sapiens, UniProt P27338); test: MAO-B inhibition assay (benzylamine); assay type: biochemical; conditions: for remaining activity at 10 µM: read-out: Residual activity at 10 µM (%) MAO-B
T3 construct: purchased Sigma-Aldrich
T3 sequence (P27338 1-520): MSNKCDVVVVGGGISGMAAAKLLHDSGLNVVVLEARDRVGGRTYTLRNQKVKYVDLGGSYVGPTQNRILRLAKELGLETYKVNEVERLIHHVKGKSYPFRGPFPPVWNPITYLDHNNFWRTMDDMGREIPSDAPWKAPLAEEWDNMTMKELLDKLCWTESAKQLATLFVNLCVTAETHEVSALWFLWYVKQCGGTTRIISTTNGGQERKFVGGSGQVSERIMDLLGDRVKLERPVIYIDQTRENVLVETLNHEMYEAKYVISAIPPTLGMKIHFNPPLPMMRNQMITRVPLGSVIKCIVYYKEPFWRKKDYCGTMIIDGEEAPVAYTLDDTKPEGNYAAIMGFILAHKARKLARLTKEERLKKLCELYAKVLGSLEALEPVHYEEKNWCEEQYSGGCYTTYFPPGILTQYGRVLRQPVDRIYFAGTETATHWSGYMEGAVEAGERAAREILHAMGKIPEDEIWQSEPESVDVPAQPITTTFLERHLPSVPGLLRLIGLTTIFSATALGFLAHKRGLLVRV
Procedure: as §1, §2

recombinant human MAO-A = target: T4, recombinant human MAO-A (Homo sapiens, UniProt P21397); test: MAO-A inhibition assay (kynuramine); assay type: biochemical; conditions: for remaining activity at 10 µM: read-out: Residual activity at 10 µM (%) MAO-A
T4 construct: purchased Sigma-Aldrich
T4 sequence (P21397 1-527): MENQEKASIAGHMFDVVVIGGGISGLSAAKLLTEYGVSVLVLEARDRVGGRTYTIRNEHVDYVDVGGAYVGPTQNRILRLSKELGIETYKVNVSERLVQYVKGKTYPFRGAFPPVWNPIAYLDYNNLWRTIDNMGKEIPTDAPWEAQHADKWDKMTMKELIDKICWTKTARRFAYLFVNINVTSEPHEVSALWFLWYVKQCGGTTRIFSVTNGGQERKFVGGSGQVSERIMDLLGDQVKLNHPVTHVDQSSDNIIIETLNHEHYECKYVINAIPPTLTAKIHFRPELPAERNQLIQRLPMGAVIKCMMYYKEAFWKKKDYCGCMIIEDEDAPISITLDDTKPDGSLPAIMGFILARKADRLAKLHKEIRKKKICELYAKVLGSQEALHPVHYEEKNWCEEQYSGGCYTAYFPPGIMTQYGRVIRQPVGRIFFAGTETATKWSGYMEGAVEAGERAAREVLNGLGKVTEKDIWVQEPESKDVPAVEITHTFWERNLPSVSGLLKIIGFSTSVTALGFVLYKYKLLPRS
Procedure: as §1, §2

BChE = conditions: cited from earlier work
[2] = flavonoids from Agrimonia pilosa
[3] = verbascosides from Harpagophytum procumbens
[4] = 15 min preincubation, read-out: IC50 (µM) AChE

T1 sequence (O42275 24-633): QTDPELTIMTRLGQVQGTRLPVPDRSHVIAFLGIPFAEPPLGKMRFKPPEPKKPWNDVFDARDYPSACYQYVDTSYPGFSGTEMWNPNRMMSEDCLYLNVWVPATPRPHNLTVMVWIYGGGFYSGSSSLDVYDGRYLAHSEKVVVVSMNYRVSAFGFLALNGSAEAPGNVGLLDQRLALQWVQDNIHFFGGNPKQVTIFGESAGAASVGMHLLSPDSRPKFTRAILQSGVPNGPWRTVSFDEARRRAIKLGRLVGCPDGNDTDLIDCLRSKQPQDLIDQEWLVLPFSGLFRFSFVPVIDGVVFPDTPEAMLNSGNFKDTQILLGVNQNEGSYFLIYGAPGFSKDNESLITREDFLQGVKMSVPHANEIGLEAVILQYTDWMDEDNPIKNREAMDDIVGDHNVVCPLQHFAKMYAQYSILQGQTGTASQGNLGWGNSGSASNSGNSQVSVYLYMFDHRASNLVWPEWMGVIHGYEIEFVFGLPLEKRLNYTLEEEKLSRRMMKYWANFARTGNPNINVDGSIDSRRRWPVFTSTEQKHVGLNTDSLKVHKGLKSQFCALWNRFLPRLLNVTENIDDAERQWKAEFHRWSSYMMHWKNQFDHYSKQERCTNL
T2 sequence (P81908 whole entry): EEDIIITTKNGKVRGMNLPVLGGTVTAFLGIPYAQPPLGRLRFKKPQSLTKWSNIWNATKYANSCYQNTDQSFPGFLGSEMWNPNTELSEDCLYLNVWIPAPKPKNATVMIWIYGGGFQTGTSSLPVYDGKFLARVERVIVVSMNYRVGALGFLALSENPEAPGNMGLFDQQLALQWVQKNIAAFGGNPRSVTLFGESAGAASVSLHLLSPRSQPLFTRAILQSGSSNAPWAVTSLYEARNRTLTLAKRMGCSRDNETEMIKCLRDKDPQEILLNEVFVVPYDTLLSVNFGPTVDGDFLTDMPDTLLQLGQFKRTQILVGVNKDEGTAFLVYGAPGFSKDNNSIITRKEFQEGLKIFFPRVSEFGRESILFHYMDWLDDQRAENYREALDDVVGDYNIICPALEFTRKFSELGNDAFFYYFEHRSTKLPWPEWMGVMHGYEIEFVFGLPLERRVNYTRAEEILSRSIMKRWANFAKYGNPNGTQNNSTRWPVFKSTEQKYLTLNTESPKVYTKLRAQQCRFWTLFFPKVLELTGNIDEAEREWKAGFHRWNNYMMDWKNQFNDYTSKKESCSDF

Compound	IC50 [1, 4] [µM]	remaining activity at 10 µM ([1]; 15 min preincubation) [%]	IC50 (BChE (from equine serum); read-out: IC50 (µM) BChE) [µM]	remaining activity at 10 µM (recombinant human MAO-B; inhibitor 10 µM) [%]	remaining activity at 10 µM (recombinant human MAO-A; inhibitor 10 µM) [%]	also measured
C[C@@H]1O[C@@H](O[C@@H]2[C@@H](O)[C@H](OCCc3ccc(O)c(O)c3)O[C@H](CO)[C@H]2O)[C@H](O)[C@H](O)[C@H]1O [decaffeoylverbascoside]						IC50 (AChE; [3]): 16.1 µM
CC(=O)O[C@@H]1[C@H](OC(=O)C=C(C)C)c2c(ccc3ccc(=O)oc23)OC1(C)C [PJ1, Isosamidin]	> 40	92.1 ± 1.7	> 40	85 ± 0.57	86 ± 5.47	
COC(C)(C)[C@H](O)CCC(C)=CCOc1c2ccoc2cc2oc(=O)ccc12 [(R)-( +)-6′-hydroxy-7′-methoxybergamottin]						IC50 (AChE; from Citrus hystrix): 11.2 µM
CC(C)=CC(=O)O[C@@H]1c2c(ccc3ccc(=O)oc23)OC(C)(C)[C@@H]1OC(=O)CC(C)C [PJ9, 3′-isovaleryl-4′-senecioylkhellactone]	36.1 ± 0.66	86.9 ± 9.92	12.5 ± 2.82	75 ± 8.42	80.6 ± 5.02	SI = IC50 of AChE/ IC50 of BChE [1]: 2.89
CC(C)CC(=O)O[C@@H]1c2c(ccc3ccc(=O)oc23)OC(C)(C)[C@@H]1OC(=O)CC(C)C [PJ14, 3′,4′-diisovalerylkhellactone]	28.1 ± 0.33	51.5 ± 4.5	> 40	66.1 ± 5.23	77 ± 5.4	SI = IC50 of AChE/ IC50 of BChE [1]: < 0.70
C[C@@H]1O[C@@H](O[C@@H]2[C@@H](O)[C@H](OCCc3ccc(O)c(O)c3)O[C@H](COC(=O)/C=C/c3ccc(O)c(O)c3)[C@H]2O)[C@H](O)[C@H](O)[C@H]1O [isoacteoside]						IC50 (BChE; from H. procumbens): 29.7 µM
COc1cc2ccc(=O)oc2cc1O [scopoletin]						IC50 (AChE; from Vaccinium oldhami Miquel): 52 µM
C/C=C(/C)C(=O)O[C@@H]1[C@H](OC(=O)C=C(C)C)c2c(ccc3ccc(=O)oc23)OC1(C)C [PJ6, calipteryxin]	25.6 ± 4.5	76.3 ± 6.46	> 40	63.1 ± 2.75	86.1 ± 1.93	SI = IC50 of AChE/ IC50 of BChE [1]: < 0.64
O=c1c(O)c(-c2ccc(O)cc2)oc2cc(O)cc(O)c12 [kaempferol]						IC50 (BChE; from Cleistocalyx operculatus): 62.5 µM
COc1cc2oc(-c3ccc(O)cc3)cc(=O)c2c(O)c1[C@@H]1O[C@H](CO)[C@@H](O)[C@H](O)[C@H]1O [swertisin, isovitexin-7-O-methyl ether]						IC50 (AChE; converted from µg/mL, from Anthocleista vogelii): 71.9 µM; IC50 AChE (AChE; from Anthocleista vogelii): 32.09 µg/mL (≈ 71.9 µM)
CC(C)=CC(=O)O[C@@H]1[C@H](OC(=O)CC(C)C)c2c(ccc3ccc(=O)oc23)OC1(C)C [PJ8, 3′-senecioyl-4′-isovalerylkhellactone]	31.6 ± 4.4	97 ± 1.4	> 40	68.5 ± 2.1	79.5 ± 2.05	SI = IC50 of AChE/ IC50 of BChE [1]: < 0.79
CC1=C2OCC(C)c3ccc(C)c(c32)C(=O)C1=O (stereo not drawn) [mansonone E]						IC50 (AChE; from Mansonia gagei): 23.5 µM
COc1ccc2c(c1OC)CN1CCc3cc4c(cc3C1=C2)OCO4 [dihydroberberine]						IC50 (AChE): 1.18 µM
C/C=C(/C)C(=O)O[C@@H]1c2c(ccc3ccc(=O)oc23)OC(C)(C)[C@@H]1OC(=O)C(C)CC (stereo partly drawn) [PJ12]	29 ± 1.15	58.3 ± 5.37	> 40	72.4 ± 3.7	78.9 ± 3.98	SI = IC50 of AChE/ IC50 of BChE [1]: < 0.73
O=C(/C=C/c1ccc(O)cc1)OC[C@H]1O[C@@H](Oc2c(-c3ccc(O)cc3)oc3cc(O)cc(O)c3c2=O)[C@H](O)[C@@H](O)[C@@H]1O [tiliroside]						IC50 (AChE; [2]): 23.5 µM

Compound	IC50 [1, 4] [µM]	remaining activity at 10 µM ([1]; 15 min preincubation) [%]	IC50 (BChE (from equine serum); read-out: IC50 (µM) BChE) [µM]	remaining activity at 10 µM (recombinant human MAO-B; inhibitor 10 µM) [%]	remaining activity at 10 µM (recombinant human MAO-A; inhibitor 10 µM) [%]	also measured
C/C=C(/C)C(=O)O[C@H]1[C@H](O)c2cc3ccc(=O)oc3cc2OC1(C)C [4′-hydroxy Pd–C-III]						IC50 (AChE; from Angelica decursiva): 1.09 µM; IC50 (BChE; from A. decursiva): 5.78 µM
CC(C)=CC(=O)O[C@@H]1c2c(ccc3ccc(=O)oc23)OC(C)(C)[C@@H]1OC(=O)C=C(C)C [PJ4, 3′,4′-disenecioylkhellactone]	21.3 ± 7.69	85.4 ± 7.52	10.7	95.6 ± 4.8	100.3 ± 0.39	SI = IC50 of AChE/ IC50 of BChE [1]: 1.99
CCC(C)C(=O)O[C@@H]1c2c(ccc3ccc(=O)oc23)OC(C)(C)[C@@H]1OC(C)=O (stereo partly drawn) [hyuganin C]						IC50 (BChE; from Mutellina purpurea): 38.9 µM
COc1ccc(CCCc2ccc(O)cc2)c(O)c1 [broussonin A]						IC50 (BChE; from Anemarrhena asphodeloidesa): 7.5 µM
corenone B						IC50 (BChE; converted from μg/mL, from Niphogeton dissecta): 49.5 µM; IC50 BChE (BChE; from Niphogeton dissecta): 10.9 µg/mL
C/C=C(/C)C(=O)O[C@@H]1c2c(ccc3ccc(=O)oc23)OC(C)(C)[C@@H]1OC(=O)/C(C)=C\C [PJ7, anomalin]		75.4 ± 5.72				IC50 [1]: 17.9 ± 5.59 µM; SI = IC50 of AChE/ IC50 of BChE [1]: < 0.45; IC50 (BChE (from equine serum); IC50 (µM) BChE): > 40 µM; remaining activity at 10 µM (recombinant human MAO-B): 73.8 ± 8.23%; remaining activity at 10 µM (recombinant human MAO-A): 74 ± 1.16%
CCC(C)C(=O)O[C@@H]1c2c(ccc3ccc(=O)oc23)OC(C)(C)[C@@H]1OC(C)=O (stereo partly drawn) [PJ3, hyuganin]	> 40	97.2 ± 8.3	> 40	83.7 ± 2.33	81.2 ± 3.68	
CC1(C)Oc2cc3oc(=O)ccc3cc2C[C@@H]1O [decursinol]						IC50 (AChE; from Angelica gigas Nakai): 28 µM
O=c1ccc2cc(O)c(O)cc2o1 [esculetin]						IC50 (AChE; from Artemisia capillaris): 6.13 µM; IC50 (BChE): 9.29 µM
CCC(C)C(=O)O[C@@H]1c2c(ccc3ccc(=O)oc23)OC(C)(C)[C@@H]1OC(=O)C=C(C)C (stereo partly drawn) [PJ10, 3′-senecioyl-4′-(2-methylbutyryl)khellactone]	> 40	86.4 ± 5.23	10.2	70.9 ± 2.61	92.1 ± 5.58	SI = IC50 of AChE/ IC50 of BChE [1]: > 3.92
CCC(C)C(=O)c1c(O)c2c(c3c(-c4ccccc4)cc(=O)oc13)OC(C)(CCC=C(C)C)C=C2 (stereo not drawn) [mesuagenin B]						IC50 (AChE; from Mesua elegans): 0.7 µM
C/C=C(/C)C(=O)OC1c2c(ccc3ccc(=O)oc23)OC(C)(C)C1OC(=O)CC(C)C (stereo not drawn) [PJ11, 3′-isovaleryl-4′-angeloylkhellactone]	> 40	88.1 ± 1.35	> 40	89.1 ± 1.36	75.4 ± 0.3	
C[C@@H]1O[C@@H](O[C@@H]2[C@@H](O)[C@H](OCCc3ccc(O)c(O)c3)O[C@H](CO)[C@H]2OC(=O)/C=C/c2ccc(O)c(O)c2)[C@H](O)[C@H](O)[C@H]1O [acteoside]						IC50 (AChE; [3]): 19.9 µM
O=c1ccc2ccc(O)c(O)c2o1 [daphnetin]						IC50 (AChE; from Artemisia capillaris): 11.6 µM; IC50 (BChE): 8.66 µM
Pteryxin [PJ2]						Residual activity at 10 µM (%) AChE ([1]; inhibitor 10 µM, 15 min preincubation): 73.4 ± 11.3%; Residual activity at 10 µM (%) BChE (BChE (from equine serum); inhibitor 10 µM): 87.6 ± 7.14%; Residual activity at 10 µM (%) MAO-B (recombinant human MAO-B; inhibitor 10 µM): 79.7 ± 3.47%; Residual activity at 10 µM (%) MAO-A (recombinant human MAO-A; inhibitor 10 µM): 85.4 ± 3.80%; IC50 (BChE; converted from μg/mL, from M. purpurea): 33.5 µM; IC50 BChE (BChE; from M. purpurea): 12.96 µg/mL
